Patent US20240368667A1, “RAPID, LABEL-FREE ANTIBIOTIC SUSCEPTIBILITY OF BACTERIA DIRECTLY FROM POSITIVE BLOOD OR BODILY FLUID/CULTURE” (priority 2021, published 2024)
Converted amounts (≈) assume the structure as drawn. Where two headings read alike, the source gives them in different places.

Columns and labels:
P. aeruginosa = experiment: Broth microdilution (BMD) MIC; assay type: cell-based, Pseudomonas aeruginosa; parameters: key to susceptibility classification, BMD: (S) sensitive; (I) intermediate; (R) resistant; details: broth microdilution; for MIC: Pseudomonas aeruginosa, read-out: Minimum inhibitory concentration, BMD
Procedure: (§1) Microbroth dilution for minimum inhibitory concentrations (MIC) with and without sucrose recovery. To isolate bacteria without sucrose, culture media from positive BacT/alert FA PLUS aerobic culture bottles (bioMérieux, Durham, NC) was serially diluted and plated onto LB agar (Lennox; Sigma-Aldrich, St. Louis, MO). Bacterial suspensions were prepared by resuspending colonies in CAMHB with incubation on a MaxQ 4000 incubator shaker (Thermo Fisher Scientific, Waltham, MA) at 37° C. and ˜225 rpm for 3 hours. Bacteria recovered via Method 2 were diluted 10-fold in CAMHB. Following incubation or sucrose recovery and dilution, bacterial suspensions were adjusted to ˜0.004 OD600 with CAMHB and a 50-μL aliquot distributed to each well of a 96-well plate containing CAMHB with and without clinically relevant antibiotics (2-fold dilution series). Gram-negative plates included: ceftazidime (3rd generation cephalosporin, RPI corp., Mount Prospect, IL), cefepime (4th generation cephalosporin, Chem-Impex Int'l, Wood Dale, IL), meropenem (carbapenem, Tokyo Chemical Industry, Tokyo, Japan), levofloxacin (quinolone, Alfa Aesar, Haverhill, MA), and tobramycin (aminoglycoside, MP Biomedicals LLC, Santa Ana, CA), while S. aureus plates contained: oxacillin (beta-lactam, Sigma-Aldrich, St. Louis, MO), vancomycin (glycopeptide, Santa Cruz Biotechnology, Dallas, TX), erythromycin (macrolide, Sigma-Aldrich, St. Louis, MO), clindamycin ([…]), and ciprofloxacin (fluoroquinolone, Sigma-Aldrich, St. Louis, MO). Antibiotic plates were incubated at 37° C. for 16-20 hours (gram-negative) or 35° C. for 24 hours (S. aureus), at which time, plates were removed from the incubator and visually inspected for bacterial growth. The MIC was set at the lowest antibiotic concentration at which no growth was detected.

E. coli [1] = experiment: Broth microdilution (BMD) MIC; assay type: cell-based, Escherichia coli; parameters: key to susceptibility classification, BMD: (S) sensitive; (I) intermediate; (R) resistant; details: for MIC: Escherichia coli
Procedure: as §1

P. aeruginosa 77 = experiment: Microbroth dilution MIC with and without sucrose recovery; assay type: cell-based, Pseudomonas aeruginosa; details: MIC given as multiple of S/I/R
Procedure: as §1
Influence of Sucrose on Bacterial MIC. To rule out the potential effect of sucrose exposure in bacterial antibiotic susceptibility, microbroth dilution studies were performed on bacteria recovered using standard practices (i.e. plating following positive blood culture) and through selective lysis coupled with centrifugation through the sucrose cushion (Method 2).

E. coli [2] = experiment: Direct flow cytometric AST (high-throughput flow cytometry, HTFC) of sucrose-recovered bacteria; assay type: cell-based, Escherichia coli; parameters: key to susceptibility classification, HTFC: (S) sensitive; (I) intermediate; (R) resistant; details: for susceptibility classification, HTFC / MIC: sucrose-recovered, antibiotic 4 hours (37° C.); for MIC: Escherichia coli, 4 h, read-out: Minimum inhibitory concentration, HTFC
Procedure: AST workflow using bacteria recovered directly from positive blood culture. A 1-mL aliquot of bacteria recovered using separation method 2 was diluted 10-fold in CAMHB, the OD600 adjusted to ˜0.01, and a 50 μL aliquot distributed into each well of a 96-well plate containing CAMHB with and without ceftazidime, tobramycin, and either meropenem (E. coli and P. aeruginosa) or oxacillin (S. aureus). Following Clinical and Laboratory Standards Institute (CLSI) guidelines^33, 2% sodium chloride (NaCl) was present in wells containing oxacillin to assist in the detection of methicillin-resistant S. aureus (MRSA). […] To account for observed differences in doubling and lag times, E. coli and P. aeruginosa were incubated for 4 hours at 37° C., while S. aureus was incubated for 9 hours at 35° C. After incubation, antibiotic plates were removed from the incubator and directly stored on ice (i.e. no post-processing) until high-throughput flow cytometry (BD LSRFortessa with HTS-system, BD, Franklin Lakes, NJ). No-antibiotic controls and antibiotic-treated samples were handled identically.
MIC Determination by flow cytometry. Because antibiotic effects are observed in both the position of scatter signatures (morphology changes) and count rates (growth inhibition), a modified count rate, accounting for scatter position, was used to evaluate susceptibility. Briefly, no-antibiotic control populations (triplicate) were pooled, binned, and a convex hull boundary set at 1-standard deviation above the background (not including bins with zero counts) was drawn. […] The overlap ratio, measuring changes in morphology, was then computed by dividing the number of sample events within the no-antibiotic control boundary by the total number of events within the sample. As an increase in count rate attributed to viable bacteria in antibiotic-treated samples is not scientifically meaningful, the fractional overlap was multiplied by the minimum of the control and sample count rates to generate a modified count rate accounting for antibiotic-induced morphological changes. All modified count rates were normalized by the average of the no-antibiotic controls. For automatic MIC determination, normalized count rates corresponding to n (index of predicted MIC), n+1, n+2 were iteratively fit to a linear function with a frameshift of n+1 between iterations (FIGS. 8 and 9). […] A threshold of −0.01 instead of zero was used to mitigate the influence of small fluctuations in normalized count rates on susceptibility determinations.

MIC (P. aeruginosa; P. aeruginosa Blood Culture B): 2 µg/mL (≈ 4.28 µM) | MIC (P. aeruginosa; P. aeruginosa Blood Culture C): ≤ 0.125 µg/mL | MIC (P. aeruginosa; P. aeruginosa PA7): > 64 µg/mL | MIC (P. aeruginosa; P. aeruginosa PA46): 0.5 µg/mL (≈ 1.07 µM) | MIC (P. aeruginosa; P. aeruginosa PA49): 0.5 µg/mL (≈ 1.07 µM) | MIC (P. aeruginosa; P. aeruginosa PA81): 0.5 µg/mL (≈ 1.07 µM) | MIC (P. aeruginosa; PAO1, P. aeruginosa PAO1): 0.5 µg/mL (≈ 1.07 µM) | MIC (E. coli [1]; E. coli Blood Culture A, broth microdilution, read-out: Minimum inhibitory concentration, BMD): 1 µg/mL (≈ 2.14 µM) | MIC (E. coli [1]; E. coli Blood Culture B, broth microdilution, read-out: Minimum inhibitory concentration, BMD): 8 µg/mL (≈ 17.1 µM) | MIC (E. coli [1]; E. coli EC37, broth microdilution, read-out: Minimum inhibitory concentration, BMD): 0.25 µg/mL (≈ 0.535 µM) | MIC (E. coli [1]; E. coli EC-bank, broth microdilution, read-out: Minimum inhibitory concentration, BMD): 0.5 µg/mL (≈ 1.07 µM) | MIC (E. coli [1]; E. coli Mu76, broth microdilution, read-out: Minimum inhibitory concentration, BMD): 0.5 µg/mL (≈ 1.07 µM) | MIC (E. coli [1]; E. coli Mu218, broth microdilution, read-out: Minimum inhibitory concentration, BMD): 32 µg/mL (≈ 68.4 µM) | MIC (E. coli [1]; E. coli Mu890, broth microdilution, read-out: Minimum inhibitory concentration, BMD): 0.5 µg/mL (≈ 1.07 µM) | MIC (E. coli [1]; E. coli, strain not named (FIG. 14), read-out: MIC as determined by BMD): 0.25 µg/mL (≈ 0.535 µM) | minimum inhibitory concentration (MIC), Standard (P. aeruginosa 77; P. aeruginosa 77 recovered by standard plating): ⅛S | minimum inhibitory concentration (MIC), Sucrose (P. aeruginosa 77; P. aeruginosa 77 recovered through sucrose (Method 2)): ⅛S
Compound: NC[C@H]1O[C@H](O[C@H]2[C@H](O)[C@@H](O[C@H]3O[C@H](CO)[C@@H](O)[C@H](N)[C@H]3O)[C@H](N)C[C@@H]2N)[C@H](N)C[C@@H]1O [Tobramycin, tobramycin]
susceptibility classification, BMD (P. aeruginosa; P. aeruginosa Blood Culture B): (S) | susceptibility classification, BMD (P. aeruginosa; P. aeruginosa Blood Culture C): (S) | susceptibility classification, BMD (P. aeruginosa; P. aeruginosa PA7): (R) | susceptibility classification, BMD (P. aeruginosa; P. aeruginosa PA46): (S) | susceptibility classification, BMD (P. aeruginosa; P. aeruginosa PA49): (S) | susceptibility classification, BMD (P. aeruginosa; P. aeruginosa PA81): (S) | susceptibility classification, BMD (P. aeruginosa; P. aeruginosa PAO1): (S) | susceptibility classification, BMD (E. coli [1]; E. coli Blood Culture A, broth microdilution): (S) | susceptibility classification, BMD (E. coli [1]; E. coli Blood Culture B, broth microdilution): (I) | susceptibility classification, BMD (E. coli [1]; E. coli EC37, broth microdilution): (S) | susceptibility classification, BMD (E. coli [1]; E. coli EC-bank, broth microdilution): (S) | susceptibility classification, BMD (E. coli [1]; E. coli Mu76, broth microdilution): (S) | susceptibility classification, BMD (E. coli [1]; E. coli Mu218, broth microdilution): (R) | susceptibility classification, BMD (E. coli [1]; E. coli Mu890, broth microdilution): (S) | susceptibility classification, HTFC (E. coli [2]; E. coli Blood Culture A): (S) | susceptibility classification, HTFC (E. coli [2]; E. coli Blood Culture B): (S) | susceptibility classification, HTFC (E. coli [2]; E. coli EC37): (S) | susceptibility classification, HTFC (E. coli [2]; E. coli EC-bank): (S) | susceptibility classification, HTFC (E. coli [2]; E. coli Mu76): (S) | susceptibility classification, HTFC (E. coli [2]; E. coli Mu218): (R) | susceptibility classification, HTFC (E. coli [2]; E. coli Mu890): (S) | flow cytometric count rate (E. coli [2]; E. coli, strain not named (FIG. 14), concentrations ≥0.25 μg/mL, no-antibiotic control ~11,000 evts/s): ≥ 100 evts/s | MIC (E. coli [2]; E. coli Blood Culture A): 0.25 µg/mL (≈ 0.535 µM) | MIC (E. coli [2]; E. coli Blood Culture B): 4 µg/mL (≈ 8.56 µM) | MIC (E. coli [2]; E. coli EC37): 0.25 µg/mL (≈ 0.535 µM) | MIC (E. coli [2]; E. coli EC-bank): ≤ 0.125 µg/mL | MIC (E. coli [2]; E. coli Mu76): 0.5 µg/mL (≈ 1.07 µM) | MIC (E. coli [2]; E. coli Mu218): 16 µg/mL (≈ 34.2 µM) | MIC (E. coli [2]; E. coli Mu890): 0.5 µg/mL (≈ 1.07 µM)
